Reference: patent US10294202B2, “Pyrrolidinones as herbicides” (FMC Corporation, priority 2013, dated 2019)

Columns and labels:
Assay in all cases: Test E preemergence herbicide test
Design in all cases: key: 0 = no effect, 100 = complete control
[1] = tested on: soybean; format: in vivo, Glycine max
Excerpt: (§1) Seeds of plant species selected from corn (Zea mays), soybean (Glycine max), velvetleaf (Abutilon theophrasti), lambsquarters (Chenopodium album), wild poinsettia (Euphorbia heterophylla), pigweed, palmer (palmer pigweed, Amaranthus palmeri), waterhemp (common waterhemp, Amaranthus rudis), surinam grass (Brachiaria decumbens), crabgrass, large (large crabgrass, Digitaria sanguinalis), crabgrass, Brazil (Brazilian crabgrass, Digitaria horizontalis), panicum, fall (fall panicum, Panicum dichotomiflorum), foxtail, giant (giant foxtail, Setaria faberii), foxtail, green (green foxtail, Setaria viridis), goosegrass (Eleusine indica), johnsongrass (Sorghum halepense), ragweed (common ragweed, Ambrosia elatior), barnyardgrass (Echinochloa crus-galli), sandbur (southern sandbur, Cenchrus echinatus), arrowleaf […] rhombifolia), ryegrass, Italian (Italian ryegrass, Lolium multiflorum), dayflower, VA (Virginia dayflower, Commelina virginica), field bindweed (Convolvulus arvensis), morningglory (Ipomoea coccinea), nightshade (eastern black nightshade, Solanum ptycanthum), kochia (Kochia scoparia), nutsedge, yellow (yellow nutsedge, Cyperus esculentus), cocklebur (common cocklebur, Xanthium strumarium), smartweed (ladysthumb smartweed, Polygonum Persicaria) and beggarticks (hairy beggarticks, Bidens pilosa), were planted into a silt loam soil and treated preemergence with test chemicals formulated in a non-phytotoxic solvent mixture which included a surfactant. Treated plants and controls were maintained in a greenhouse for 21 days, after which time all species were compared to controls and visually evaluated. Plant response ratings, summarized in Table E, are based on a scale of 0 to 100 where 0 is no effect and 100 is complete control. A dash (-) response means no test result.

[2] = tested on: panicum, fall; format: in vivo, Panicum dichotomiflorum
Excerpt: as §1

[3] = tested on: foxtail, green; format: in vivo, Setaria viridis
Excerpt: as §1

[4] = tested on: barnyardgrass; format: in vivo, Echinochloa crus-galli
Excerpt: as §1

[5] = tested on: field bindweed; format: in vivo, Convolvulus arvensis
Excerpt: as §1

[6] = tested on: morningglory; format: in vivo, Ipomoea coccinea
Excerpt: as §1

[7] = tested on: nightshade; format: in vivo, Solanum ptycanthum
Excerpt: as §1

| Compound | Plant response rating, Soybean ([1]; 31 g ai/ha) | Plant response rating, Soybean ([1]; 62 g ai/ha) | Plant response rating, Soybean ([1]; 125 g ai/ha) | Plant response rating, Soybean ([1]; 250 g ai/ha) | Plant response rating, Panicum, Fall ([2]; 31 g ai/ha) | Plant response rating, Panicum, Fall ([2]; 62 g ai/ha) | Plant response rating, Panicum, Fall ([2]; 125 g ai/ha) | Plant response rating, Foxtail, Green ([3]; 31 g ai/ha) | Plant response rating, Foxtail, Green ([3]; 62 g ai/ha) | Plant response rating, Foxtail, Green ([3]; 125 g ai/ha) | Plant response rating, Foxtail, Green ([3]; 250 g ai/ha) | Plant response rating, Barnyardgrass ([4]; 31 g ai/ha) | Plant response rating, Barnyardgrass ([4]; 62 g ai/ha) | Plant response rating, Barnyardgrass ([4]; 125 g ai/ha) | Plant response rating, Barnyardgrass ([4]; 250 g ai/ha) | Plant response rating, Field Bindweed ([5]; 31 g ai/ha) | Plant response rating, Field Bindweed ([5]; 62 g ai/ha) | Plant response rating, Field Bindweed ([5]; 125 g ai/ha) | Plant response rating, Field Bindweed ([5]; 250 g ai/ha) | Plant response rating, Morningglory ([6]; 31 g ai/ha) | further results |
| --- | --- | --- | --- | --- | --- | --- | --- | --- | --- | --- | --- | --- | --- | --- | --- | --- | --- | --- | --- | --- | --- |
| O=C1NCC(c2ccc(C(F)(F)F)cc2)C1C(=O)Nc1ccc(F)c(F)c1F (centres unmarked) [Compound 232] | 0 | 0 | 0 | 0 | 35 | 50 | 50 | 80 | 95 | 98 | 98 | 60 | 70 | 98 | 95 | 0 | 0 | 40 | 40 | 0 | Plant response rating, Panicum, Fall ([2]; 250 g ai/ha): 60; Plant response rating, Morningglory ([6]; 62 g ai/ha): 0; Plant response rating, Morningglory ([6]; 125 g ai/ha): 0; Plant response rating, Morningglory ([6]; 250 g ai/ha): 35; Plant response rating, Nightshade ([7]; 31 g ai/ha): 25; Plant response rating, Nightshade ([7]; 62 g ai/ha): 75; Plant response rating, Nightshade ([7]; 125 g ai/ha): 98 |
| O=C1NCC(c2ccc(F)cc2)C1C(=O)Nc1ccccc1F (racemic) [Compound 16] | 0 | 0 | 0 | 0 | 0 | 0 | 0 | 0 | 10 | 25 | 95 | 0 | 0 | 10 | 70 | 0 | 0 | 0 | 0 | 0 | Plant response rating, Soybean ([1]; 16 g ai/ha): 0; Plant response rating, Panicum, Fall ([2]; 16 g ai/ha): 0; Plant response rating, Foxtail, Green ([3]; 16 g ai/ha): 0; Plant response rating, Barnyardgrass ([4]; 16 g ai/ha): 0; Plant response rating, Field Bindweed ([5]; 16 g ai/ha): 0; Plant response rating, Morningglory ([6]; 16 g ai/ha): 0; Plant response rating, Morningglory ([6]; 62 g ai/ha): 0; Plant response rating, Morningglory ([6]; 125 g ai/ha): 0; Plant response rating, Morningglory ([6]; 250 g ai/ha): 0; Plant response rating, Nightshade ([7]; 16 g ai/ha): 0; Plant response rating, Nightshade ([7]; 31 g ai/ha): 0; Plant response rating, Nightshade ([7]; 62 g ai/ha): 0; Plant response rating, Nightshade ([7]; 125 g ai/ha): 0; Plant response rating, Nightshade ([7]; 250 g ai/ha): 0 |
| O=C1NCC(c2cccc(Br)c2)C1C(=O)Nc1ccccc1F (centres unmarked) [Compound 66] | 0 | 0 | 0 | 0 | 0 | 0 | 0 | 0 | 0 | 35 | 60 | 0 | 20 | 50 | 50 | 0 | 0 | 0 | 0 | 0 | Plant response rating, Soybean ([1]; 16 g ai/ha): 0; Plant response rating, Panicum, Fall ([2]; 16 g ai/ha): 0; Plant response rating, Panicum, Fall ([2]; 250 g ai/ha): 0; Plant response rating, Foxtail, Green ([3]; 16 g ai/ha): 0; Plant response rating, Barnyardgrass ([4]; 16 g ai/ha): 0; Plant response rating, Field Bindweed ([5]; 16 g ai/ha): 0; Plant response rating, Morningglory ([6]; 16 g ai/ha): 0; Plant response rating, Morningglory ([6]; 62 g ai/ha): 0; Plant response rating, Morningglory ([6]; 125 g ai/ha): 0; Plant response rating, Morningglory ([6]; 250 g ai/ha): 0; Plant response rating, Nightshade ([7]; 16 g ai/ha): 0; Plant response rating, Nightshade ([7]; 31 g ai/ha): 0; Plant response rating, Nightshade ([7]; 62 g ai/ha): 0; Plant response rating, Nightshade ([7]; 250 g ai/ha): 0 |
